# In US12569508B2, “Antimicrobial compositions and methods of use” (priority 2020, dated 2026):
# Assays:
# [1] = test system: PAO1 biofilm (72 h, transferred); experiment: Transferred biofilm model; format: cell-based, P. aeruginosa; details: 15 μg/mL TOB; 0.05 mg/mL MO-LCNPs; 24 h
# Method: Taking into account the toxicity data of the MO-LCNPs, additional biofilm activity studies were conducted to ensure a non-toxic concentration of MO-LCNPs maintained the activity of TOB in the MBEC Assay® PAO1 biofilm model. A variation in this biofilm model was employed to contrast the effect of the MO-LCNPs compared to the standard, MBEC® model. Briefly, from an overnight culture, PAO1 was diluted in M63 media to an OD of 0.01 in 500 μL in 24 well plates and incubated for 72 h at 37° C. to form biofilms. Breath seals were used to permit gas exchange during the 72 h incubation period. The 72 h biofilms were then washed with 200 μL PBS to remove planktonic bacteria. Then, using 500 μL of M63 buffer, the biofilms was scraped off from the bottom of the 24-well plate using a 1 mL pipette tip and transferred into a fresh plate. This formed microcolonies of biofilm that closely resembles the clinical environment. The treatments were then added on top of the biofilms and incubated for a further 24 h at 37° C. The treatments included 15 μg/mL of an unformulated TOB solution and TOB loaded in the MO-LCNPs
# The amount of Pluronic F-127 in the MO-LCNPs TOB formulation was also varied to determine the effect the surface stabiliser had on the antimicrobial effect. […]
# in vitro = in vitro ADME; details: human
# Method: The barrier integrity of the CFBE41o− cell line cultured on the Transwell® supports was determined by both TEER (Srinivasan B et aL, 2015, Journal of Laboratory Automation, 20(2): 107-126) and sodium fluorescein transport (Molenda N et al., 2014, PLOS ONE, 9(6): p. e100621). Due to the variation in TEER measurements, sodium fluorescein transport provided a direct measurement of the tight junctions. On day 7 (4 days after cells are transferred to ALI), cells were incubated basolaterally with 1.7 mL KRB buffer and apically with 520 μL of 10 μg/mL sodium fluorescein (in KRB) with or without 16 mM ethylenediaminetetraacetic acid (EDTA). EDTA disrupts the tight junctions of a cell barrier. At 30-minute intervals, 20 μL samples were taken from the basolateral compartment and replaced with fresh KRB. […] The samples were then measured and compared to a standard curve via fluorescent spectroscopy (Tecan® plate reader, Tecan Deutschland GmbH, Germany) at excitation and emission wavelengths of […], respectively. […]
# (§1) After TOB treatments were nebulised, at 5, 15, 30, 60, 120, 240 and 1440 minutes, 100 μL sample was taken from the basolateral compartment and replaced with fresh MEM media. The sample was then filtered through 4 mm Millex® syringe filters before LC-MS/MS analysis, as described above, to quantify the transport of TOB.
# [2] = Tobramycin transport across CFBE41o− infected with PAO1 biofilm; format: in vitro ADME, human; details: human; nebulised; biofilm and epithelium monolayer; read-out: Papp of TOB
# Method: (§2) To assess the activity and toxicity or formulations, the CFBE41o− cell line was seeded on Transwell® inserts (0.05×10^6) at the liquid-liquid interface (500 μL apical and 1500 μL basolateral) on day 0. On day 3, the apical side media was removed, and the basolateral side was replaced with 500 μL of media. On day 7, the transepithelial electrical resistance (TEER) was measured through adding 500 μL to the apical chamber of one well and replacing the basolateral side with 1500 μL. The transferred biofilm model, described above, was employed to transfer the PAO1 biofilm on top of the CFBE41o− cell line in the apical compartment of the Transwells® on day 7. After 1 h incubation, the supernatant was removed as the biofilm has settled onto the cells.
# (§3) Using the Aerogen® Pro (vibrating mesh nebuliser) and nebulisation chamber, the treatments were then nebulised on top of the biofilm and CFBE41o− cell layer. […]
# as §1
# [3] = test system: CFBE41o− infected with PAO1 biofilm; experiment: as above; format: in vitro ADME, human; details: peak at 2.5 h after nebulisation
# Method: as §2, §3, §1
# PAO1 biofilm on CFBE41o− = experiment: Chronic infection model CFBE41o− and PAO1: bacterial counts; format: cell-based, P. aeruginosa
# Method: A chronic infection model was developed which cultures P. aeruginosa biofilm on top of the bronchial CF epithelium cells (CFBE41o−) at an air-liquid interface. It is a biologically relevant, 3D model that resembles the infected lungs of CF patients.
# as §2
# Using the Aerogen® Pro (vibrating mesh nebuliser) and nebulisation chamber, the treatments were then nebulised on top of the biofilm and CFBE41o− cell layer. TOB as an unformulated solution or loaded in the MO-LCNPs were dosed at 10 μg, which was equivalent to 100 μL of 3.32 mg/mL for unformulated TOB and 2.50 mg/mL for MO-LCNPs loaded with TOB. The treatments were prepared by diluting the stock solution/LCNPs suspension to the required concentration in KRB buffer. Each time the nebuliser was first rinsed with KRB buffer and the Transwell® to be dosed was transfered to a clean 12 well plate. The treatment was nebulised following a 30 second deposition waiting time. After all treatments were dosed, the Transwells® were replaced to their original well that included fresh MEM media supplemented with 1% arginine (500 μL) and incubated for the required time at 37° C.
# At the time points 24 h and 48 h, different read outs were obtained, including bacterial counts, viability of cells and barrier integrity. […] The plates were incubated for 18 h at 30° C. before the colonies of bacteria were counted.
compound,measurement,setting,value
"NC[C@H]1O[C@H](O[C@H]2[C@H](O)[C@@H](O[C@H]3O[C@H](CO)[C@@H](O)[C@H](N)[C@H]3O)[C@H](N)C[C@@H]2N)[C@H](N)C[C@@H]1O [unformulated TOB, tobramycin]",reduction in PAO1 load,[1],two
same,Papp at 1440 min,in vitro,0.81 ×10⁻⁶ cm/s
same,"Papp at 1440 min, 3.32 mg/mL",[2],1.91 ×10⁻⁶ cm/s
same,TOB reaching the basolateral compartment,[3],15.8%
same,P. aeruginosa remaining,"PAO1 biofilm on CFBE41o−; 24 h after nebulisation, biofilm of 4×10^8 CFU/mL",7.4×10^3 CFU/mL
same,P. aeruginosa remaining,"PAO1 biofilm on CFBE41o−; 48 h, one nebulised dose",1.2×10^3 CFU/mL
same,P. aeruginosa remaining,"PAO1 biofilm on CFBE41o−; 48 h, two nebulised doses",5.4×10^1 CFU/mL
